Assay results published in ChEMBL document CHEMBL5543142, “Discovery of YFJ-36: Design, Synthesis, and Antibacterial Activities of Catechol-Conjugated β-Lactams against Gram-Negative Bacteria” (J Med Chem, 2024).

Assays:
Pseudomonas aeruginosa [1] = experiment: Antibacterial activity against IMP-4 producing multidrug-resistant Pseudomonas aeruginosa clinical isolate 15-5 assessed as inhibition of bacterial growth incubated for 18 to 20 hrs by two fold serial dilution assay; type: functional; conditions: time 18-20 hrs
Acinetobacter baumannii [2] = experiment: Antibacterial activity against OXA-23 producing multidrug-resistant Acinetobacter baumannii clinical isolate 15-1 assessed as inhibition of bacterial growth incubated for 18 to 20 hrs by two fold serial dilution assay; type: functional; conditions: time 18-20 hrs
Klebsiella pneumoniae [3] = experiment: Antibacterial activity against KPC-2 producing multidrug-resistant Klebsiella pneumoniae clinical isolate 15-1 assessed as inhibition of bacterial growth incubated for 18 to 20 hrs by two fold serial dilution assay; type: functional; conditions: time 18-20 hrs
Klebsiella pneumoniae [4] = experiment: Antibacterial activity against KPC-2 producing multidrug-resistant Klebsiella pneumoniae clinical isolate 15-2 assessed as inhibition of bacterial growth incubated for 18 to 20 hrs by two fold serial dilution assay; type: functional; conditions: time 18-20 hrs
Pseudomonas aeruginosa [5] = experiment: Antibacterial activity against IMP-4 producing multidrug-resistant Pseudomonas aeruginosa clinical isolate 15-4 assessed as inhibition of bacterial growth incubated for 18 to 20 hrs by two fold serial dilution assay; type: functional; conditions: time 18-20 hrs
Pseudomonas aeruginosa [6] = experiment: Antibacterial activity against IMP-4 producing multidrug-resistant Pseudomonas aeruginosa clinical isolate 15-1 assessed as inhibition of bacterial growth incubated for 18 to 20 hrs by two fold serial dilution assay; type: functional; conditions: time 18-20 hrs
Acinetobacter baumannii [7] = experiment: Antibacterial activity against OXA-23 producing multidrug-resistant Acinetobacter baumannii clinical isolate 15-4 assessed as inhibition of bacterial growth incubated for 18 to 20 hrs by two fold serial dilution assay; type: functional; conditions: time 18-20 hrs
Escherichia coli [8] = experiment: Antibacterial activity against ESBL-producing multidrug-resistant Escherichia coli clinical isolate 14-1 assessed as inhibition of bacterial growth incubated for 18 to 20 hrs by two fold serial dilution assay; type: functional; conditions: time 18-20 hrs
Acinetobacter baumannii [9] = experiment: Antibacterial activity against OXA-23 producing multidrug-resistant Acinetobacter baumannii clinical isolate 15-3 assessed as inhibition of bacterial growth incubated for 18 to 20 hrs by two fold serial dilution assay; type: functional; conditions: time 18-20 hrs
Escherichia coli [10] = experiment: Antibacterial activity against ESBL-producing multidrug-resistant Escherichia coli clinical isolate 14-4 assessed as inhibition of bacterial growth incubated for 18 to 20 hrs by two fold serial dilution assay; type: functional; conditions: time 18-20 hrs
Escherichia coli [11] = experiment: Antibacterial activity against ESBL-producing multidrug-resistant Escherichia coli clinical isolate 14-2 assessed as inhibition of bacterial growth incubated for 18 to 20 hrs by two fold serial dilution assay; type: functional; conditions: time 18-20 hrs
Pseudomonas aeruginosa [12] = experiment: Antibacterial activity against Pseudomonas aeruginosa ATCC 27853 assessed as inhibition of bacterial growth incubated for 18 to 20 hrs by two fold serial dilution assay; type: functional; conditions: time 18-20 hrs
Acinetobacter baumannii [13] = experiment: Antibacterial activity against OXA-23 producing multidrug-resistant Acinetobacter baumannii clinical isolate 15-5 assessed as inhibition of bacterial growth incubated for 18 to 20 hrs by two fold serial dilution assay; type: functional; conditions: time 18-20 hrs
Klebsiella pneumoniae [14] = experiment: Antibacterial activity against KPC-2 producing multidrug-resistant Klebsiella pneumoniae clinical isolate 15-3 assessed as inhibition of bacterial growth incubated for 18 to 20 hrs by two fold serial dilution assay; type: functional; conditions: time 18-20 hrs
Klebsiella pneumoniae [15] = experiment: Antibacterial activity against KPC-2 producing multidrug-resistant Klebsiella pneumoniae clinical isolate 15-5 assessed as inhibition of bacterial growth incubated for 18 to 20 hrs by two fold serial dilution assay; type: functional; conditions: time 18-20 hrs
Acinetobacter baumannii [16] = experiment: Antibacterial activity against OXA-23 producing multidrug-resistant Acinetobacter baumannii clinical isolate 15-2 assessed as inhibition of bacterial growth incubated for 18 to 20 hrs by two fold serial dilution assay; type: functional; conditions: time 18-20 hrs
[17] = Clearance in ICR mouse at 20 mg/kg,iv administration measured upto 6 hrs by LC-MS/MS analysis; type: ADME, organism-based; conditions: in vivo
[18] = Half life in ICR mouse at 20 mg/kg,iv administration measured upto 6 hrs by LC-MS/MS analysis; type: ADME, organism-based; conditions: in vivo
[19] = AUC (0 to infinity) in ICR mouse at 20 mg/kg,iv administration measured upto 6 hrs by LC-MS/MS analysis; type: ADME, organism-based; conditions: in vivo
[20] = MRT in ICR mouse at 20 mg/kg,iv administration measured upto 6 hrs by LC-MS/MS analysis; type: ADME, organism-based; conditions: in vivo
[21] = Volume of distribution at steady state in ICR mouse at 20 mg/kg,iv administration measured upto 6 hrs by LC-MS/MS analysis; type: ADME, organism-based; conditions: in vivo, read-out: Vdss
Acinetobacter baumannii [22] = experiment: Antibacterial activity against OXA-23 producing multidrug-resistant Acinetobacter baumannii clinical isolate 17-2 assessed as inhibition of bacterial growth incubated for 18 to 20 hrs by two fold serial dilution assay; type: functional; conditions: time 18-20 hrs
Escherichia coli [23] = experiment: Antibacterial activity against Escherichia coli ATCC35218 assessed as inhibition of bacterial growth incubated for 18 to 20 hrs by two fold serial dilution assay; type: functional; conditions: time 18-20 hrs
Pseudomonas aeruginosa [24] = experiment: Antibacterial activity against IMP-4 producing multidrug-resistant Pseudomonas aeruginosa clinical isolate 17-13 assessed as inhibition of bacterial growth incubated for 18 to 20 hrs by two fold serial dilution assay; type: functional; conditions: time 18-20 hrs
Pseudomonas aeruginosa [25] = experiment: Antibacterial activity against IMP-4 producing multidrug-resistant Pseudomonas aeruginosa clinical isolate 19-1 assessed as inhibition of bacterial growth incubated for 18 to 20 hrs by two fold serial dilution assay; type: functional; conditions: time 18-20 hrs
Acinetobacter baumannii [26] = experiment: Antibacterial activity against OXA-23 producing multidrug-resistant Acinetobacter baumannii clinical isolate 17-3 assessed as inhibition of bacterial growth incubated for 18 to 20 hrs by two fold serial dilution assay; type: functional; conditions: time 18-20 hrs
Pseudomonas aeruginosa [27] = experiment: Antibacterial activity against IMP-4 producing multidrug-resistant Pseudomonas aeruginosa clinical isolate 19-17 assessed as inhibition of bacterial growth incubated for 18 to 20 hrs by two fold serial dilution assay; type: functional; conditions: time 18-20 hrs
Pseudomonas aeruginosa [28] = experiment: Antibacterial activity against IMP-4 producing multidrug-resistant Pseudomonas aeruginosa clinical isolate 19-5 assessed as inhibition of bacterial growth incubated for 18 to 20 hrs by two fold serial dilution assay; type: functional; conditions: time 18-20 hrs

Structure (SMILES) | MIC (Pseudomonas aeruginosa [1]) [µg/mL] | MIC (Acinetobacter baumannii [2]) [µg/mL] | MIC (Klebsiella pneumoniae [3]) [µg/mL] | MIC (Klebsiella pneumoniae [4]) [µg/mL] | MIC (Pseudomonas aeruginosa [5]) [µg/mL] | MIC (Pseudomonas aeruginosa [6]) [µg/mL] | MIC (Acinetobacter baumannii [7]) [µg/mL] | MIC (Escherichia coli [8]) [µg/mL] | MIC (Acinetobacter baumannii [9]) [µg/mL] | MIC (Escherichia coli [10]) [µg/mL] | MIC (Escherichia coli [11]) [µg/mL] | MIC (Pseudomonas aeruginosa [12]) [µg/mL] | MIC (Acinetobacter baumannii [13]) [µg/mL] | MIC (Klebsiella pneumoniae [14]) [µg/mL] | MIC (Klebsiella pneumoniae [15]) [µg/mL] | MIC (Acinetobacter baumannii [16]) [µg/mL] | also measured
Nc1nc(/C(=N/OC2(C(=O)O)CC2)C(=O)N[C@@H]2C(=O)N3C(C(=O)O)=C(CSCCNC(=O)c4ccc(O)c(O)c4Cl)CS[C@H]23)cs1.O=C(O)C(F)(F)F | 4 | 64 | 16 | 32 | 1 | 1 | 64 | 0.5 | 32 | 64 | 2 | 4 | 64 | > 64 | 32 | 64 | 
CC(C)(C)C(O/N=C(\C(=O)N[C@@H]1C(=O)N2C(C(=O)O)=C(CS[C@H]3CC[C@@H](NC(=O)c4ccc(O)c(O)c4Cl)CC3)CS[C@H]12)c1csc(N)n1)C(=O)O.O=C(O)C(F)(F)F (some centres undefined) | 8 | 8 | 4 | 16 | 16 | 8 | 4 | 0.5 | 8 | 4 | 4 | 8 | 8 | 32 | 1 | 4 | 
CC(C)(O/N=C(\C(=O)N[C@@H]1C(=O)N2C(C(=O)O)=C(CSCCNC(=O)c3ccc(O)c(O)c3Cl)CS[C@H]12)c1csc(N)n1)C(=O)O.O=C(O)C(F)(F)F | 4 | 32 | 8 | 4 | 4 | 2 | 32 | 0.25 | 32 | 1 | 2 | 0.5 | 64 | 8 | 2 | 32 | 
Cl.Nc1nc(/C(=N/OC(C(=O)O)C2CCC(F)(F)CC2)C(=O)N[C@@H]2C(=O)N3C(C(=O)O)=C(CSCCNC(=O)c4ccc(O)c(O)c4Cl)CS[C@H]23)cs1 (some centres undefined) |  |  |  |  |  |  |  |  |  |  |  |  |  |  |  |  | clearance [17]: 54 mL/min/kg; half-life [18]: 46.8 min; AUC(0-inf) [19]: 6340 ng·h/mL; MRT [20]: 18.6 min; Vd [21]: 0.997 L/kg
Nc1nc(/C(=N/OC(C(=O)O)C2CCCCC2)C(=O)N[C@@H]2C(=O)N3C(C(=O)O)=C(CSCCNC(=O)c4ccc(O)c(O)c4Cl)CS[C@H]23)c(Br)s1.O=C(O)C(F)(F)F (some centres undefined) |  | 2 | 2 | 2 |  |  | 2 | 1 | 2 | 0.25 | 0.5 |  | 1 | 8 | 1 | 1 | MIC (Acinetobacter baumannii [22]): 1 µg/mL; MIC (Escherichia coli [23]): 0.06 µg/mL; MIC (Pseudomonas aeruginosa [24]): 0.25 µg/mL; MIC (Pseudomonas aeruginosa [25]): 4 µg/mL; MIC (Acinetobacter baumannii [26]): 1 µg/mL; MIC (Pseudomonas aeruginosa [27]): 0.5 µg/mL; MIC (Pseudomonas aeruginosa [28]): 1 µg/mL
CC(C)(O/N=C(\C(=O)N[C@@H]1C(=O)N2C(C(=O)O)=C(CS[C@H]3CC[C@@H](NC(=O)c4ccc(O)c(O)c4Cl)CC3)CS[C@H]12)c1csc(N)n1)C(=O)O.O=C(O)C(F)(F)F | 2 | 32 | 4 | 4 | 1 | 1 | 32 | 0.125 | 32 | 1 | 4 | 8 | 32 | 4 | 8 | 32 | 
CC(C)(C)C(O/N=C(\C(=O)N[C@@H]1C(=O)N2C(C(=O)O)=C(CSCCNC(=O)c3ccc(O)c(O)c3Cl)CS[C@H]12)c1csc(N)n1)C(=O)O.O=C(O)C(F)(F)F (some centres undefined) | 4 | 2 | 0.25 | 1 | 8 | 4 | 1 | 0.06 | 2 | 2 | 1 | 4 | 2 | 16 | 0.5 | 1 | 
